Measurements: ChEMBL document CHEMBL5370585, “Exploration and Biological Evaluation of 1,3-Diamino-7H-pyrrol[3,2-f]quinazoline Derivatives as Dihydrofolate Reductase Inhibitors” (J Med Chem, 2023)
pIC50: −log10 of the molar value. Values after ≈ are worked out from the molar mass of the structure shown.

Experiments:
Acinetobacter baumannii = assay: Antibacterial activity against Acinetobacter baumannii ATCC 19606 incubated for 16 to 18 hrs by CLSI based broth dilution method; format: functional; conditions: time 16-18 hrs
MCF7 = assay: Cytotoxicity against human MCF7 cells measured after 72 hrs by MTT assay; format: functional, cell-based; conditions: MCF7, 72 h
Staphylococcus aureus [1] = assay: Antibacterial activity against methicillin-resistant Staphylococcus aureus ATCC 43300 incubated for 16 to 18 hrs by CLSI based broth dilution method; format: functional; conditions: time 16-18 hrs
HCT-116 = assay: Cytotoxicity against human HCT-116 cells measured after 72 hrs by MTT assay; format: functional, cell-based; conditions: HCT-116, 72 h
Staphylococcus aureus [2] = assay: Antibacterial activity against Staphylococcus aureus ATCC 29213 incubated for 16 to 18 hrs by CLSI based broth dilution method; format: functional; conditions: time 16-18 hrs
[3] = tested on: Staphylococcus epidermidis; assay: Antibacterial activity against Staphylococcus epidermidis ATCC 12228 incubated for 16 to 18 hrs by CLSI based broth dilution method; format: functional; conditions: time 16-18 hrs
[4] = molecular target: T1, Dihydrofolate reductase (Homo sapiens) (UniProt P00374); assay: Inhibition of human DHFR at 1 uM incubated for 10 mins in presence of NADPH by colorimetry based analysis relative to control
T1 sequence (whole entry): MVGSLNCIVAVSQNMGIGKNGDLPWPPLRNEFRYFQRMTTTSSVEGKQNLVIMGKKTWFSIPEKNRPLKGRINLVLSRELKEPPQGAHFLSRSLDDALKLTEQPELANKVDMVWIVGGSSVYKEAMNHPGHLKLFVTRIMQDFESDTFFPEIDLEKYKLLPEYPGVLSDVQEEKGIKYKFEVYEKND

HGC-27 = assay: Cytotoxicity against human HGC-27 cells measured after 72 hrs by MTT assay; format: functional, cell-based; conditions: HGC-27, 72 h
Enterococcus faecalis = assay: Antibacterial activity against Enterococcus faecalis ATCC 29212 incubated for 16 to 18 hrs by CLSI based broth dilution method; format: functional; conditions: time 16-18 hrs
HepG2 = assay: Cytotoxicity against human HepG2 cells measured after 72 hrs by MTT assay; format: functional, cell-based; conditions: HepG2, 72 h
Escherichia coli = assay: Antibacterial activity against Escherichia coli ATCC 25922 incubated for 16 to 18 hrs by CLSI based broth dilution method; format: functional; conditions: time 16-18 hrs

Row | Structure (SMILES) | MIC (Acinetobacter baumannii) [µg/mL] | pIC50 (MCF7) | MIC (Staphylococcus aureus [1]) [µg/mL] | pIC50 (HCT-116) | MIC (Staphylococcus aureus [2]) [µg/mL] | MIC [3] [µg/mL] | inhibition [4] [%] | pIC50 (HGC-27) | MIC (Enterococcus faecalis) [µg/mL] | pIC50 (HepG2) | MIC (Escherichia coli) [µg/mL]
1 | Nc1nc(N)c2c(ccc3c2ccn3Cc2cc3ccccc3o2)n1 | 32 (≈ 97.2 µM) | 6.00 | 0.25 (≈ 0.759 µM) | 5.32 | 0.25 (≈ 0.759 µM) | ≤ 0.004 | 29.1 | 6.23 | 0.25 (≈ 0.759 µM) | 5.97 | 0.25 (≈ 0.759 µM)
2 | COC(=O)c1ccc2nc(Cn3ccc4c5c(N)nc(N)nc5ccc43)ccc2c1 |  | 6.07 | 0.25 (≈ 0.627 µM) | 6.68 | 0.5 (≈ 1.25 µM) | 0.25 (≈ 0.627 µM) | 64.5 | > 7.00 | 0.25 (≈ 0.627 µM) | 6.37 | 2 (≈ 5.02 µM)
3 | Nc1nc(N)c2c(ccc3c2ccn3Cc2ccc3ncsc3c2)n1 | 16 (≈ 46.2 µM) | 5.41 | 0.125 (≈ 0.361 µM) | < 5.00 | 0.25 (≈ 0.722 µM) | ≤ 0.004 | 80.6 | 6.51 | 0.25 (≈ 0.722 µM) | 5.93 | 0.25 (≈ 0.722 µM)
4 | COC(=O)c1ccc2nc(Cn3ccc4c5c(N)nc(N)nc5ccc43)sc2c1 | > 32 | < 5.00 | 2 (≈ 4.94 µM) | 6.14 | 4 (≈ 9.89 µM) | 0.008 (≈ 0.0198 µM) |  | 6.62 | 2 (≈ 4.94 µM) | 6.31 | > 8
5 | Nc1nc(N)c2c(ccc3c2ccn3Cc2ccc3sccc3c2)n1 | 4 (≈ 11.6 µM) | 6.29 | 0.03 (≈ 0.0868 µM) | 5.06 | 0.06 (≈ 0.174 µM) | ≤ 0.004 | 87 | 6.25 | 0.06 (≈ 0.174 µM) | 6.28 | 0.25 (≈ 0.724 µM)
6 | Nc1nc(N)c2c(ccc3c2ccn3Cc2ccc(Br)c3ccccc23)n1 |  | 6.72 | 0.125 (≈ 0.299 µM) | > 7.00 | 0.25 (≈ 0.598 µM) | ≤ 0.004 | 74.1 | > 7.00 | 0.125 (≈ 0.299 µM) | > 7.00 | 1 (≈ 2.39 µM)
7 | Cc1cc2c3c(N)nc(N)nc3ccc2n1Cc1ccc(-c2ccccc2)cc1 | > 32 | 5.83 | 4 (≈ 10.5 µM) | 5.65 | 4 (≈ 10.5 µM) | ≤ 0.004 |  | 5.15 | 4 (≈ 10.5 µM) | 5.88 | > 8
8 | Cc1cc2c3c(N)nc(N)nc3ccc2n1Cc1cccc2scnc12 | 8 (≈ 22.2 µM) | 6.35 | 1 (≈ 2.77 µM) | < 5.00 | 1 (≈ 2.77 µM) | ≤ 0.004 | 99.4 | 5.35 | 2 (≈ 5.55 µM) | 6.60 | > 8
9 | CCOC(=O)c1ccc(Cn2ccc3c4c(N)nc(N)nc4ccc32)c2ccccc12 |  | 5.08 | 0.25 (≈ 0.608 µM) | 6.06 | 0.5 (≈ 1.22 µM) | ≤ 0.06 | 70.9 | > 7.00 | 0.5 (≈ 1.22 µM) | 6.28 | 64 (≈ 156 µM)
10 | Nc1nc(N)c2c(ccc3c2ccn3Cc2ccc3cc(C(=O)O)ccc3c2)n1 |  | 6.26 | 0.004 (≈ 0.0104 µM) | 7.00 | 0.004 (≈ 0.0104 µM) | ≤ 0.004 | 98.8 | 7.02 | 50 (≈ 130 µM) | 6.85 | > 128
11 | Nc1nc(N)c2c(ccc3c2ccn3Cc2ccc3ocnc3c2)n1 | > 32 | 5.23 | 2 (≈ 6.05 µM) | < 5.00 | 8 (≈ 24.2 µM) | ≤ 0.004 | 29.1 | 5.45 | 4 (≈ 12.1 µM) | 5.44 | 2 (≈ 6.05 µM)
12 | Nc1nc(N)c2c(ccc3c2ccn3Cc2cc3ccccc3s2)n1 | 32 (≈ 92.6 µM) | 6.04 | 0.125 (≈ 0.362 µM) | 5.71 | 0.125 (≈ 0.362 µM) | ≤ 0.004 | 70.9 | 6.29 | 0.125 (≈ 0.362 µM) | 6.57 | 0.25 (≈ 0.724 µM)
13 | COc1cc(Cc2cnc(N)nc2N)c2c(c1OC)OC(C1CC1)C=C2 (stereo not given) |  |  | 0.06 (≈ 0.169 µM) |  | 0.06 (≈ 0.169 µM) | ≤ 0.004 |  |  | 0.06 (≈ 0.169 µM) |  | 1 (≈ 2.82 µM)
14 | Nc1nc(N)c2c(ccc3c2ccn3Cc2nc3ccc(C(=O)O)cc3s2)n1 | > 32 | 5.09 | > 8 | 5.80 | 8 (≈ 20.5 µM) | 0.5 (≈ 1.28 µM) | 80.6 | 6.05 | > 8 | 5.66 | > 8
15 | Nc1nc(N)c2c(ccc3c2ccn3Cc2ccc(C(=O)O)c3ccccc23)n1 | > 32 | < 5.00 | 2 (≈ 5.22 µM) | < 5.00 | 2 (≈ 5.22 µM) | 0.5 (≈ 1.3 µM) | 93.5 | < 5.00 | 2 (≈ 5.22 µM) | < 5.00 | > 8
16 | Nc1nc(N)c2c(ccc3c2ccn3Cc2nc3ccccc3o2)n1 | 16 (≈ 48.4 µM) | 6.01 | 0.25 (≈ 0.757 µM) | 7.40 | 0.5 (≈ 1.51 µM) | 0.008 (≈ 0.0242 µM) | 16.1 | 7.16 | 0.25 (≈ 0.757 µM) | 6.18 | 0.25 (≈ 0.757 µM)
17 | COc1ccc2nc(Cn3ccc4c5c(N)nc(N)nc5ccc43)sc2c1 |  | 5.92 | 0.25 (≈ 0.664 µM) | 5.35 | 0.5 (≈ 1.33 µM) | ≤ 0.004 | 38.7 | 6.09 | 0.5 (≈ 1.33 µM) | 5.57 | 2 (≈ 5.31 µM)
18 | Nc1nc(N)c2c(ccc3c2ccn3Cc2ccc3sc(N)nc3c2)n1 | > 32 | < 5.00 | 8 (≈ 22.1 µM) | < 5.00 | > 8 | 2 (≈ 5.53 µM) |  | < 5.00 | > 8 | < 5.00 | > 8
19 | COC(=O)c1ccc(Cn2ccc3c4c(N)nc(N)nc4ccc32)c2ccccc12 |  | 5.88 | 0.004 (≈ 0.0101 µM) | 6.74 | 0.004 (≈ 0.0101 µM) | ≤ 0.004 | 83.9 | > 7.00 | 0.016 (≈ 0.0403 µM) | 6.72 | 2 (≈ 5.03 µM)
20 | Nc1nc(N)c2c(ccc3c2ccn3Cc2ccc3cc(C(=O)O)ccc3n2)n1 |  | 5.01 | 32 (≈ 83.2 µM) | 5.02 | 32 (≈ 83.2 µM) | 0.25 (≈ 0.65 µM) | 77.4 | 5.38 | > 8 | 5.33 | > 128
21 | Nc1nc(N)c2c(ccc3c2ccn3Cc2ccc3nc(N)sc3c2)n1 | > 32 | 6.60 | 2 (≈ 5.53 µM) | 8.40 | 2 (≈ 5.53 µM) | ≤ 0.004 | 90.2 | 8.22 | 2 (≈ 5.53 µM) | 7.21 | 4 (≈ 11.1 µM)
22 | Nc1nc(N)c2c(ccc3c2ccn3Cc2ccc(B(O)O)c3ccccc23)n1 |  | 6.96 | 0.125 (≈ 0.326 µM) | > 7.00 | 0.25 (≈ 0.652 µM) | ≤ 0.004 | 77.4 | > 7.00 | 0.125 (≈ 0.326 µM) | > 7.00 | 1 (≈ 2.61 µM)
23 | Nc1nc(N)c2c(ccc3c2ccn3Cc2ccc3ccccc3c2)n1 |  | < 6.00 | 0.25 (≈ 0.737 µM) | 7.30 | 0.5 (≈ 1.47 µM) | 0.5 (≈ 1.47 µM) | 70.9 | 7.54 | 0.5 (≈ 1.47 µM) | 6.96 | 0.5 (≈ 1.47 µM)
